pIC50: −log10 of the molar value. Structures can show the parent of a compound that is named as a salt.
What was measured:
[1] = system: Male Slc-Hartley guinea pigs; experiment: Electrocardiographic assay for guinea pig; conditions: dose extending 5% of QTc; i.v. infusion for 15 minutes, anesthetized guinea pigs, ECG lead II
Experimental: Male Slc-Hartley guinea pigs were anesthetized to determine electrocardiogram (lead II) under artificial respiration. A drug solution was continuously and intravenously infused via cannula indwelled in cervical veins at a flow rate: 0.2 ml/kg/min for 15 minutes.

5-HT4 receptor = biological target: T1, 5-HT4 receptor (Cavia porcellus, UniProt O70528); experiment: Serotonin 4 (5-HT4) receptor binding assay; set-up: species or system guinea pig; conditions: inhibition of specific binding of 0.1 nM [3H]-GR113808; guinea pig striatum membrane preparations; 37° C., 30 minutes; read-out: IC50
T1 construct: the mixture was suspended to give receptor membrane preparations; from tissue; host or cells: guinea pig (Slc-Hartley) brain striatum membranes
T1 sequence (O70528 whole entry): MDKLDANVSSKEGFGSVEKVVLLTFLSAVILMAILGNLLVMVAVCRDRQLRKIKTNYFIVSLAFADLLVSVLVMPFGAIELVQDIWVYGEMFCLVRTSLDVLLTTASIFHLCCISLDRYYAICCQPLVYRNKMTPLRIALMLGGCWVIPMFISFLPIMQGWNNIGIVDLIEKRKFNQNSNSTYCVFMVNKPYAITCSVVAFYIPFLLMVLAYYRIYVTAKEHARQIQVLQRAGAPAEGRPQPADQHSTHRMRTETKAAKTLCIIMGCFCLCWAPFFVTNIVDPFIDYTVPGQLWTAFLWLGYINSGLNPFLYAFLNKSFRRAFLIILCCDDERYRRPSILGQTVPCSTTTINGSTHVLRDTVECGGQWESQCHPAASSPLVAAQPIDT
Experimental: 5-HT4 receptor binding assay and preparations of receptor membrane preparations were carried out according to a method of Grossman et al. [see British J. Pharmacol., (1993) 109, 618].
Slc-Hartley guinea pigs (body weight 300 to 400 g) were decapitated to remove brain rapidly, and striatum was isolated. To the obtained tissues were added fifteenfold of Hepes buffer (50 mM, pH7.4, 4° C.), and the mixture was homogenized by Teflon® homogenizer and centrifuged at 48,000×g (4° C.) for 15 minutes. To the resulting precipitate was added Hepes buffer (1 ml) to 30 mg by wet weight of tissues, and the mixture was suspended to give receptor membrane preparations.
0.1 nM [^3H]-GR113808 {chemical name: [1-[2-(methylsulfonylamino)ethyl]-4-piperidinyl]methyl 1-methylindole-3-carboxylate}, receptor membrane preparations, and Hepes buffer (50 mM, pH7.4, 4° C., 1 ml) containing test compounds or 30 μM serotonin were placed in an assay tube, and incubated at 37° C. for 30 minutes. On quenching the reaction, the mixture was rapidly filtered on whatman GF/B filter, which was presoaked in 0.1% polyethyleneimine for 1 hour, by using Brandel cell Harvester, and washed with ice-cooled 50 mM Tris-HCl (pH7.7, 4 ml) three times. To the filter after filtration was added ACS II scintillator, and then a radioactivity was determined by a liquid scintillation counter.
50% inhibition concentrations (IC50) were determined from inhibition rates of test compounds to specific bindings which were obtained by subtracting nonspecific bindings from total binding amounts of [^3H]-GR113808.

Male Slc-ddy mice = experiment: Mouse defecation assay; assay type: in vivo; set-up: key: −: No Effect; +: Moderately Improved (p<0.05); ++: Significantly Improved (p<0.01); conditions: 3 mg/kg orally; stool weight 30, 60 and 120 minutes after administration; Dunnett assay vs control
Experimental: Male Slc-ddy mice (body weight 25 to 30 g) were used and allowed to ingest food and water ad libitum until commencement of experiments.
A group of 25 mice was divided into 5 groups, which 5 mice each per group were respectively transferred to fasting cages to adjust to new environments for about 1 hour. Then, each mouse was orally administered 3 mg/kg suspension of a test compound in 0.5% tragacanth solution to measure each stool weight of each group 30, 60, and 120 minutes after oral administration.
Efficacies were evaluated by Dunnett assay between test compounds and control.

Row | SMILES | ED5% (mg/kg,i.v.) [1] [mg/kg] | pIC50 (5-HT4 receptor) | Effect (Male Slc-ddy mice) | melting point
1 | COc1cccc(C(=O)N2CCC(CN3CCO[C@@H](CNC(=O)c4cc(Cl)c(N)cc4OC)C3)CC2)c1 [Example 124] | >30 | 8.71 | + | 
2 | COC(=O)N1CCC(CN2CCO[C@@H](CNC(=O)c3cc(Cl)c(N)cc3OC)C2)CC1 [Example 92] | >30 |  | + | 
3 | COc1ccc(C(=O)N2CCC(CN3CCO[C@@H](CNC(=O)c4cc(Cl)c(N)cc4OC)C3)CC2)cc1 [Example 125] | >30 | 8.45 | ++ | 
4 | COc1cc(N)c(Cl)cc1C(=O)NC[C@H]1CN(CC2CCN(C(=O)[C@H](C)OC)CC2)CCO1 [Example 225] | >30 | 7.69 | ++ | 
5 | COc1cc(N)c(Cl)cc1C(=O)NC[C@H]1CN(CC2CCN(C(=O)c3cocn3)CC2)CCO1 [Example 228] | >30 | 7.88 | ++ | 
6 | COc1cc(N)c(Cl)cc1C(=O)NC[C@H]1CN(CC2CCN(C(=O)CO)CC2)CCO1 (as salt: hydrobromid) (hydrate or solvate) [Example 220, (S)-4-amino-5-chloro-N-[{4-[(1-hydroxyacetyl-4-piperidinyl)methyl]-2-morpholinyl}methyl]-2-methoxybenzamide hydrobromide 2 hydrate] |  |  |  | 215 to 216 °C (dec.)
7 | COc1cc(N)c(Cl)cc1C(=O)NC[C@H]1CN(CC2CCN(C(=O)CO)CC2)CCO1 (as salt: hydrochloride) [Example 198, 4-amino-5-chloro-N-[{4-[(1-hydroxyacetyl-4-piperidinyl)methyl]-2-morpholinyl}methyl]-2-methoxybenzamide hydrochloride] |  |  |  | 164 to 167 °C (dec.)
8 | COc1cc(N)c(Cl)cc1C(=O)NCC1CN(CC2CCN(C(=O)n3ccnc3)CC2)CCO1 [Example 207, (S)-4-amino-5-chloro-N-[{4-[(1-imidazolecarbonyl-4-piperidinyl)methyl]-2-morpholinyl}methyl]-2-methoxybenzamide] | >30 |  | ++ | 
9 | COc1cc(N)c(Cl)cc1C(=O)NC[C@H]1CN(CC2CCN(S(=O)(=O)N(C)C)CC2)CCO1.O=C(O)/C=C/C(=O)O [Example 80] | >30 |  | + | 
10 | C=CCOC(=O)N1CCC(CN2CCO[C@@H](CNC(=O)c3cc(Cl)c(N)cc3OC)C2)CC1 [Example 100] | >30 |  | ++ | 
11 | COCC(=O)N1CCC(CN2CCO[C@@H](CNC(=O)c3cc(Cl)c(N)cc3OC)C2)CC1 [Example 132] | >30 |  | ++ | 
12 | CCOc1cc(N)c(Cl)cc1C(=O)NC[C@H]1CN(CC2CCN(C(=O)N(C)OC)CC2)CCO1 [Example 205, (S)-4-amino-5-chloro-2-ethoxy-N-[{4-[(1-(N-methoxy-N-methylcarbamoyl)-4-piperidinyl)methyl]-2-morpholinyl}methyl]benzamide] |  |  |  | 127 to 129 °C
13 | COc1cc(N)c(Cl)cc1C(=O)NC[C@H]1CN(CC2CCN(C(=O)CO)CC2)CCO1 [Example 198, 4-amino-5-chloro-N-[{4-[(1-hydroxyacetyl-4-piperidinyl)methyl]-2-morpholinyl}methyl]-2-methoxybenzamide hydrochloride] | >30 | 7.59 | ++ | 
14 | COc1cc(N)c(Cl)cc1C(=O)NC[C@H]1CN(CC2CCN(C(C)=O)CC2)CCO1 [Example 221] | >30 | 7.34 | ++ | 
15 | CCOc1cc(N)c(Br)cc1C(=O)NCC1CN(CC2CCN(C(=O)OC(C)(C)C)CC2)CCO1 (centres unmarked) (as salt: fumarate) [Example 11, 4-amino-5-bromo-N-[{4-[(1-(tert-butoxycarbonyl)-4-piperidinyl)methyl]-2-morpholinyl}methyl]-2-ethoxybenzamide 1.5 fumarate] |  |  |  | 171 to 172 °C
16 | COc1cc(N)c(Cl)cc1C(=O)NCC1CN(CC2CCN(C(=O)N(C)C)CC2)CCO1 (centres unmarked) [Example 67, 4-amino-5-chloro-N-[{4-[(1-dimethylcarbamoyl-4-piperidinyl)methyl]-2-morpholinyl}methyl]-2-methoxybenzamide] |  |  |  | 179 to 180 °C
17 | COc1cc(N)c(Cl)cc1C(=O)NC[C@H]1CN(CC2CCN(C(=O)CNC(=O)c3ccccc3)CC2)CCO1 [Example 222] | >30 | 7.76 | ++ | 

Row | SMILES | ED5% (mg/kg,i.v.) [1] [mg/kg] | pIC50 (5-HT4 receptor) | Effect (Male Slc-ddy mice) | melting point
18 | CCOc1cc(N)c(Cl)cc1C(=O)NC[C@H]1CN(CC2CCN(C(=O)c3ccc(C)cc3)CC2)CCO1 [Example 121] | >30 | 9.64 | ++ | 
19 | CCOc1cc(N)c(Cl)cc1C(=O)NC[C@H]1CN(CC2CCN(C(=O)c3ccc(Cl)cc3)CC2)CCO1 [Example 116] | >30 | 9.17 | + | 
20 | CCOc1cc(N)c(Cl)cc1C(=O)NCC1CN(CC2CCN(C(=O)OC(C)(C)C)CC2)CCO1 (centres unmarked) (as salt: fumarate) [Example 4, 4-amino-N-[{4-[(1-(tert-butoxycarbonyl)-4-piperidinyl)methyl]-2-morpholinyl}-methyl]-5-chloro-2-ethoxybenzamide 1.5 fumarate] |  |  |  | 167 to 169 °C
21 | COc1cc(N)c(Cl)cc1C(=O)NC[C@H]1CN(CC2CCN(C(=O)C3CCOC3)CC2)CCO1 (some centres unmarked) [Example 226] | >30 | 7.67 | ++ | 
22 | COc1cc(N)c(Cl)cc1C(=O)NC[C@H]1CN(CC2CCN(C(=O)c3ccc(C#N)cc3)CC2)CCO1 [Example 230] |  | 9.19 | ++ | 
23 | COc1cc(N)c(Cl)cc1C(=O)NC[C@H]1CN(CC2CCN(C(=O)c3ccccc3OC(C)=O)CC2)CCO1 [Example 166] | >30 | 8.16 | ++ | 
24 | COc1cc(N)c(Cl)cc1C(=O)NC[C@H]1CN(CC2CCN(C(=O)Nc3ccc(Cl)c(Cl)c3)CC2)CCO1 [Example 58] |  | 8.71 | + | 
25 | COc1cc(N)c(Cl)cc1C(=O)N[C@H]1CCN(CCCOc2ccc(F)cc2)C[C@H]1OC (relative stereo) [Cisapride, cis-4-amino-5-chloro-N-[1-[3-(4-fluorophenoxy)propyl]-3-methoxy-4-piperidinyl]-2-methoxybenzamide, reference compound] | 0.3 |  | − | 
26 | COc1cc(N)c(Cl)cc1C(=O)NC[C@H]1CN(CC2CCN(C(=O)c3cccc(C)c3)CC2)CCO1 [Example 119] | >30 | 8.69 | + | 
27 | COCCC(=O)N1CCC(CN2CCO[C@@H](CNC(=O)c3cc(Cl)c(N)cc3OC)C2)CC1 [Example 224] | >30 | 7.84 | ++ | 
28 | CCc1ccc(C(=O)N2CCC(CN3CCO[C@@H](CNC(=O)c4cc(Cl)c(N)cc4OC)C3)CC2)cc1 [Example 122] | >30 | 9.06 | + | 
29 | CCOc1cc(N)c(Cl)cc1C(=O)NCC1CN(CC2CCN(C#N)CC2)CCO1 (centres unmarked) [Example 211, 4-amino-5-chloro-N-[{4-[(1-cyano-4-piperidinyl)methyl]-2-morpholinyl}-methyl]-2-ethoxybenzamide] |  |  |  | 197 °C (dec.)
30 | COc1cc(N)c(Cl)cc1C(=O)NC[C@H]1CN(CC2CCN(C(=O)c3ccc(OC(C)=O)cc3)CC2)CCO1 [Example 169] | >30 | 8.22 | ++ | 
31 | COc1cc(N)c(Cl)cc1C(=O)NC[C@H]1CN(CC2CCN(C(=O)c3nc[nH]n3)CC2)CCO1 [Example 229] | >30 | 7.74 | ++ | 
32 | CN(C)C(=O)N1CCC(CN2CCOC(CNC(=O)c3cc(Cl)c(N)c4c3OCC4)C2)CC1 (centres unmarked) [Example 135, 4-amino-5-chloro-N-[{4-[(1-dimethylcarbamoyl-4-piperidinyl)methyl]-2-morpholinyl}methyl]-2,3-dihydrobenzo[b]furan-7-carboxamide 1.5 fumarate] | >30 | 8.22 | ++ | 
33 | COc1cc(N)c(Cl)cc1C(=O)NC[C@H]1CN(CC2CCN(S(C)(=O)=O)CC2)CCO1 [Example 94] | >30 | 7.93 | ++ | 

— patent US7906510B2, “Amide derivative and pharmaceutical composition containing the same” (Dainippon Sumito Pharma Co., Ltd., priority 2008, dated 2011)
